Reference: ChEMBL document CHEMBL1147009, “Synthesis and SAR studies of diarylpyrrole anticoccidial agents” (Bioorg Med Chem Lett, 2006)

Experiments:
Eimeria acervulina = assay: Anticoccidial activity against Eimeria acervulina at 100 ppm; format: functional
[1] = molecular target: cGMP-dependent protein kinase (Eimeria tenella, UniProt Q8MMZ8); assay: Inhibition of Eimeria tenella PKG
Eimeria tenella = assay: Anticoccidial activity against Eimeria tenella at 100 ppm; format: functional

Chain of cGMP-dependent protein kinase (Q8MMZ8 whole entry): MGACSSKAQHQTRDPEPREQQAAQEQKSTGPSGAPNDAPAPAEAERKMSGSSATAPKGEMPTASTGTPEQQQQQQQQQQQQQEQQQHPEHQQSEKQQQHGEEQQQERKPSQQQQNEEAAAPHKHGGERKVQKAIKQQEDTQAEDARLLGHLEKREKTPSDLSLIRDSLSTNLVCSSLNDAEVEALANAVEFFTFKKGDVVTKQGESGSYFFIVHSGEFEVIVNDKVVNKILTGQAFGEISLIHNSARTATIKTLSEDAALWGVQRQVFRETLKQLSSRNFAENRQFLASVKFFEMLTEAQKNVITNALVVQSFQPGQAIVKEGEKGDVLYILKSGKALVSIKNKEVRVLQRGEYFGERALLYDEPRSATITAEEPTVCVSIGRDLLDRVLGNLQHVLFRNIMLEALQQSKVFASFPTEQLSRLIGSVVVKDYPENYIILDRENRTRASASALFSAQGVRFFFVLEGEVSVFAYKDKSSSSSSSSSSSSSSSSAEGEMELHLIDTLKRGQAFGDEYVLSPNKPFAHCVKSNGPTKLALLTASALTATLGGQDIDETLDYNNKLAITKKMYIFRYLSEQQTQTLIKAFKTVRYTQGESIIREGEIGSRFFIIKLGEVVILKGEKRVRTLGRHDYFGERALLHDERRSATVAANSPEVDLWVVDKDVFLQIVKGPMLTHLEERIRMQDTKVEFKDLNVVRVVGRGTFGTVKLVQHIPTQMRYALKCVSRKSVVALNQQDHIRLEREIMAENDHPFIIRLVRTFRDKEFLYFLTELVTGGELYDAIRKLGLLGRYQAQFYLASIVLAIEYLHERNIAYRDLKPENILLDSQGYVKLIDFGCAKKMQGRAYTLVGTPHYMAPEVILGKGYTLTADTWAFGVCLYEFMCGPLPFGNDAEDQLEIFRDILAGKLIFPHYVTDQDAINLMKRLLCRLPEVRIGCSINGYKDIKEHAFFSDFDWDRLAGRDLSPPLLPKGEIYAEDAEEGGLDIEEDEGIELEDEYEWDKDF

IC50 [1] [nM]	Compound	Activity (Eimeria acervulina) [%]	Activity (Eimeria tenella) [%]
1	CN1CCCC1c1cc(-c2ccncc2)c(-c2ccc(F)cc2)[nH]1 (centres undefined)	80	<50
2.5	CN(C)CCc1cc(-c2ccncc2)c(-c2ccc(F)cc2)[nH]1	50	50
1.3	Fc1ccc(-c2[nH]c(CN3CCC3)cc2-c2ccncc2)cc1	<50	<50
0.35	CN(C)Cc1cc(-c2ccncc2)c(-c2ccc(F)cc2)[nH]1	< 50	–
3.1	Fc1ccc(-c2[nH]c(C3CCCN3)cc2-c2ccncc2)cc1 (centres undefined)	<50	50
13	OCC1CCN(Cc2cc(-c3ccncc3)c(-c3ccc(F)cc3)[nH]2)CC1	<50	<50
2.1	OCCN1CCCC1c1cc(-c2ccncc2)c(-c2ccc(F)cc2)[nH]1 (centres undefined)	<50	<50
2.7	O=C(OCc1ccccc1)N1CCCC1c1cc(-c2ccncc2)c(-c2ccc(F)cc2)[nH]1 (centres undefined)	<50	<50
7.6	Fc1ccc(-c2[nH]c(CN3CCOCC3)cc2-c2ccncc2)cc1	<50	<50
3.7	Fc1ccc(-c2[nH]c(CN3CCCCC3)cc2-c2ccncc2)cc1	<50	<50
2.3	CNC(=O)N1CCCC1c1cc(-c2ccncc2)c(-c2ccc(F)cc2)[nH]1 (centres undefined)	<50	<50
3.3	C[C@@H](O)CN1CCCC1c1cc(-c2ccncc2)c(-c2ccc(F)cc2)[nH]1 (some centres undefined)	<50	<50
4.1	CCN(C)CCCc1cc(-c2ccncc2)c(-c2ccc(F)cc2)[nH]1	<50	<50
430	CCOC(=O)c1cc(-c2ccncc2)c(-c2ccc(F)cc2)[nH]1	<50	<50
> 1000	O=C(O)Cc1cc(-c2ccncc2)c(-c2ccc(F)cc2)[nH]1	<50	<50
4.1	CN(C)C(=O)Cc1cc(-c2ccncc2)c(-c2ccc(F)cc2)[nH]1	<50	<50
1.5	O=S(=O)(c1ccc(F)cc1)N1CCCC1c1cc(-c2ccncc2)c(-c2ccc(F)cc2)[nH]1 (centres undefined)	<50	<50
2.7	CN1CCCCC1c1cc(-c2ccncc2)c(-c2ccc(F)cc2)[nH]1 (centres undefined)	<50	<50
2.8	C[C@H](O)CN1CCCC1c1cc(-c2ccncc2)c(-c2ccc(F)cc2)[nH]1 (some centres undefined)	<50	80
0.71	CC(C)C(c1cc(-c2ccncc2)c(-c2ccc(F)cc2)[nH]1)N(C)C (centres undefined)	80	50
